Experiments:
RAW264.7 macrophages [1] = experiment: Cell accumulation experiment, transmitted light microscopy of cellular staining pattern; format: cell-based; conditions: for Inferred uptake: inferred from staining pattern after 72 hour incubation; for Observed cellular staining pattern (Notes): live cells, 72 hour incubation, 5 × 10^−6 M (2.5 × 10^−6 M for I); for Staining in fixed cells: methanol-fixed cells incubated 72 h with compound (control); for Cellular staining relative to clofazimine: live macrophages, 72 h
Description: Cell Accumulation Experiments and Transmitted Light Microscopic Examination: […] After a 24 h incubation (37 °C, 5% CO2), cells were incubated with solution of clofazmine or its chemical derivatives (300 μL of 5 × 10^−6 m concentration; measured cell viability ranging from 85% to 97% for all compounds tested at this concentration; Figure 1) in DMEM (no phenol red; plus 1 × 10^−3 M sodium pyruvate and 5% FBS). For Compound “I,” 2.5 × 10^−6 M of compound solution in media was used for the RAW 264.7 macrophages incubation because of lower cell viability at higher concentrations (IC50 = (3.95 ± 0.11) × 10^−6 M). A solution of clofazmine or other chemical derivatives was made by a diluting stock solutions (2.5 × 10^−3 M in DMSO; 10 × 10^−3 M stock in DMSO were stored at −80 °C for further use) into DMEM with 5% FBS. […] The extracellular concentration of each compound in each well was maintained by daily replacement of the compound‐containing media. After 72 h of incubation with clofazmine or its derivatives, compound‐containing media were removed and cells were washed twice with media. Live cells in the chambered glasses were examined under inverted transmitted light microscopy (Nikon Eclipse Ti microscope) with a 40× objective and color camera. As a control experiment, fixed cells were also microscopically examined after incubation with the compounds. Cells were seeded on the chambered cover glasses at the density of 1.5 × 10^4 cells cm^−2 (RAW264.7 macrophages) or 2.5 × 10^4 cells cm^−2 (MDCK epithelial cells). After an overnight incubation (37 °C, 5% CO2), media was removed from the wells and cold methanol (−20 °C) was added to each well. After 30 s, remaining methanol was removed by washing with media with 5% FBS. Fixed cells were incubated (37 °C, 5% CO2) with clofazmine or derivatives (300 μL of 5 × 10^−6 M; 2.5 × 10^−6 M for I) in media with 5% FBS. After 72 h, fixed RAW264.7 or MDCK cells were washed with media and examined using the same transmitted microscopy conditions as the live cells.

MDCK epithelial cells = experiment: Linear diattenuation anisotropy microscopy (LC-PolScope) of intracellular inclusions; format: cell-based, Canine; conditions: 72 h, compared with clofazimine
Description: (§1) The optical design was built on a Nikon Eclipse Ti microscope equipped with the liquid crystal universal compensator consisting of a linear polarizer and a pair of liquid crystal devices. The LC compensator was part of the transillumination path and was used to illuminate the specimen with monochromatic, linearly polarized light of varying polarization orientation. There was no polarization analyzer present in the imaging path. Quantitative intensity images were recorded by a charge‐coupled device camera and a desktop computer calculated the average transmittance, the differential transmittance and the polarization orientation leading to maximum transmittance for each optically resolved picture element (pixel). Acquisition and processing steps were controlled using OpenPolScope plugins for the open source imaging programs ImageJ and Micro‐Manager (MMStudio version 1.4.15). With the combination of hardware and software, polarized light images were acquired at high sensitivity and high spatial resolution for measuring linear diattenuation.
(§2) Linear Diattenuation Microscopy Data Acquisition and Analysis: After RAW264.7 macrophages or MDCK epithelial cells were incubated with the compound in the chambered cover glasses for 72 h, at the same time of performing transmitted microscopic examination, cell specimens were examined under linear diattenuation microscopy using the Nikon Eclipse Ti microscope with 40×/0.75 NA objective and monochromatic light of two different center wavelengths, 546 and 623 nm (passband 30 nm). In the OpenPolScope software, Pol‐Acquisition and Pol‐Analyzer plugins (version 2.0) were used to capture, process, and analyze the attenuation images. Before imaging the samples, the setup was calibrated using a specially prepared slide featuring four small pieces of linear polarization filters. The transmission axes of the filters were oriented in steps of 45° providing a means to calibrate the LC universal compensator settings. After the calibration, a sample slide was inserted and first a sequence of polarized light images of a clear, fully transmitting sample area was recorded, followed by an image sequence featuring the cells under investigation. The images of the clear area were used to determine instrument factors which were needed for computing the average and the polarization dependent loss in transmittance in cellular components visible in the second image.10
(§3) Linear diattenuation is a material property that can occur in materials such as crystals, in which the light absorbing molecules are arranged with a preferred orientation. The molecular alignment creates principal axes in the material denoting polarization directions for which light is maximally and minimally transmitted. Diattenuation is the difference between maximal (T max) and minimal (T min) transmittance, divided by their sum (Equation (1)): (1) Diattenuation=Tmax‐Tmin/Tmax+Tmin
(§4) To simultaneously measure the attenuation of many crystals with arbitrary orientations, we developed algorithms based on four specimen images, each recorded using light of a different polarization orientation: 0°, 45°, 90°, and 135°.10 The four raw images were used to calculate the average and differential transmittance and the orientation of maximum transmittance in every resolved image pixel. To isolate and analyze quantitative data of the objects (crystals), the anisotropy or maximum transmittance axis orientation image file opened in ImageJ was inverted (Ctrl + Shift + I) and thresholded using ImageJ's default automatic method (“Binary” → “Convert to Mask”). By using the ImageJ's algorithm, “Analyze Particles,” data of anisotropy or maximum transmittance axis orientation of objects in images could be obtained automatically. Diattenuation ratios were calculated by dividing anisotropy at 623 nm by that at 546 nm.

RAW264.7 macrophages [2] = experiment: as above; format: cell-based; conditions: 72 h, compared with clofazimine
Description: as §1, §2, §3, §4

RAW264.7 macrophages [3] = experiment: Cell associated mass measurements (bioaccumulation, pmole/cell); format: cell-based; conditions: 72 h incubation, normalized by number of cells
Description: Cell Associated Mass Measurements: […] After an overnight incubation (37 °C, 5% CO2), cells were incubated with 100 μL of the media (DMEM with 5% FBS) containing 5 × 10^−6 M clofazmine or its chemical derivatives (2.5 × 10^−6 M of Compound “I”). Media containing each compound was replaced every day during the 72 h incubation. After the incubation, media was removed and cells were washed with Hank's balanced salt solution (HBSS) buffer (No. 14025; Invitrogen) twice. RAW264.7 macrophage cells in buffer were scraped and MDCK epithelial cells were exposed to Trypsin‐EDTA solution for detachment from the plates for cell number counting and quantification of cell‐associated masses. After centrifugation (650 × g), supernatant was removed and cell pellets were resuspended in 0.1 M citric acid/0.1 M trisodium citrate buffer (pH 5) for cell counting as previously reported.7 Equal numbers of cells in 100 μL in buffer were transferred to 96 well plates and 100 μL of detergent (ATCC, 30‐1010K) was added into wells for cell lysis. Chemical absorbance from each well was measured by the UV–vis microplate reader (Synergy 2, BioTek Instruments, Winooski, VT) at 490 nm wavelength and cell‐associated mass of each compound was calculated by a standard curve generated separately using the same media and presented as pmole/cell by normalizing the amount of chemical in each cell population sample by the number of cells in each sample.

| SMILES | Inferred uptake (RAW264.7 macrophages [1]) | Accumulation in macrophages (RAW264.7 macrophages [3]) | Observed cellular staining pattern (Notes) (RAW264.7 macrophages [1]) | Staining in fixed cells (RAW264.7 macrophages [1]) | Diattenuation anisotropy of intracellular inclusions (MDCK epithelial cells) | Diattenuation anisotropy of intracellular inclusions (RAW264.7 macrophages [2]) | Cellular staining relative to clofazimine (RAW264.7 macrophages [1]) |
| --- | --- | --- | --- | --- | --- | --- | --- |
| NC(=O)CCN=c1cc2n(-c3ccc(Cl)cc3)c3ccccc3nc-2cc1Nc1ccc(Cl)cc1 [L] | Good |  | Small brown inclusions present in live cells | absent in fixed cells |  |  |  |
| Oc1ccc(CCN=c2cc3n(-c4ccc(Cl)cc4)c4ccccc4nc-3cc2Nc2ccc(Cl)cc2)cc1O [O] | Good |  | Most of cells have shown faint orange colored vesicles | Staining not observed in fixed cells |  |  |  |
| CCCCN=c1cc2n(-c3ccc(Cl)cc3)c3ccccc3nc-2cc1Nc1ccc(Cl)cc1 [K] | Slow |  | Very faint, brown perinuclear staining pattern |  |  |  |  |
| CC(C)N=c1cc2n(-c3ccc(F)cc3)c3ccccc3nc-2cc1Nc1ccc(F)cc1 [E] | Slow |  | Very faint, brown perinuclear staining pattern observed across all cells |  |  |  |  |
| CC(C)N=c1cc2n(-c3ccc(C(F)(F)F)cc3)c3ccccc3nc-2cc1Nc1ccc(C(F)(F)F)cc1 [D] | Very slow |  | No intracellular staining pattern observed. Small percentage of cells with orange crystals |  |  |  |  |
| CC(C)[C@H](CO)N=c1cc2n(-c3ccc(Cl)cc3)c3ccccc3nc-2cc1Nc1ccc(Cl)cc1 [W] | Good | greatest accumulation | Brown crystal-like inclusions are shown in live cells | absent in fixed cells | only in macrophages | even higher anisotropy | prominent cellular staining |
| CC(C)C(CO)N=c1cc2n(-c3ccc(Cl)cc3)c3ccccc3nc-2cc1Nc1ccc(Cl)cc1 (stereo not shown) [V] | Good | greatest accumulation | Brown crystal-like inclusions appeared in live cells | Staining not observed in fixed cells | only in macrophages | even higher anisotropy | prominent cellular staining |
| Oc1ccc(CCN=c2cc3n(-c4ccc(Cl)cc4)c4ccccc4nc-3cc2Nc2ccc(Cl)cc2)cc1 [Q] | Excellent | greatest accumulation | Purple-black dense cytoplasmic inclusions in live cells | absent in fixed cells | higher diattenuation anisotropy | higher diattenuation anisotropy | more prominent staining patterns |
| COc1ccc2[nH]cc(CCN=c3cc4n(-c5ccc(Cl)cc5)c5ccccc5nc-4cc3Nc3ccc(Cl)cc3)c2c1 [M] | Good |  | Orange-brown or purple inclusions present in live cells | Staining not observed in fixed cells |  |  | comparable in morphology and intensity to those of clofazimine |

Further lines, with some results ahead:

| Inferred uptake (RAW264.7 macrophages [1]) | Accumulation in macrophages (RAW264.7 macrophages [3]) | SMILES | Observed cellular staining pattern (Notes) (RAW264.7 macrophages [1]) | Staining in fixed cells (RAW264.7 macrophages [1]) | Diattenuation anisotropy of intracellular inclusions (MDCK epithelial cells) | Diattenuation anisotropy of intracellular inclusions (RAW264.7 macrophages [2]) | Cellular staining relative to clofazimine (RAW264.7 macrophages [1]) |
| --- | --- | --- | --- | --- | --- | --- | --- |
| Moderate |  | Clc1ccc(Nc2cc3nc4ccccc4n(-c4ccc(Cl)cc4)c-3cc2=NCCN2CCOCC2)cc1 [N] | Faint orange staining pattern associated with perinuclear cytoplasmic vesicles | Staining not observed in fixed cells |  |  |  |
| Slow |  | CC(C)N=c1cc2n(-c3ccc(-c4ccccc4)cc3)c3ccccc3nc-2cc1Nc1ccc(-c2ccccc2)cc1 [C] | Very faint, brown perinuclear staining pattern observed across all cells |  |  |  |  |
| Slow |  | COc1ccc(Nc2cc3nc4ccccc4n(-c4ccc(OC)cc4)c-3cc2=NC(C)C)cc1 [A] | did not exhibit any intracellular staining pattern |  |  |  |  |
| Moderate |  | COCCN=c1cc2n(-c3ccc(Cl)cc3)c3ccccc3nc-2cc1Nc1ccc(Cl)cc1 [H] | Brown staining associated with vesicles/membranes | Fixed cells also exhibited staining |  |  | comparable in morphology and intensity to those of clofazimine |
| Good |  | C[C@H](N=c1cc2n(-c3ccc(Cl)cc3)c3ccccc3nc-2cc1Nc1ccc(Cl)cc1)c1ccccc1 [R] | Orange-brown staining pattern associated with perinuclear cytoplasmic vesicles in live cells | No staining found in Fixed cells | did not yield a measurable, diattenuation anisotropy signal | did not yield a measurable, diattenuation anisotropy signal |  |
| Very slow |  | CC(C)N=c1cc2n(-c3ccc(C#N)cc3)c3ccccc3nc-2cc1Nc1ccc(C#N)cc1 [B] | formed large extracellular crystals. No intracellular staining pattern |  |  |  |  |

From paper PMC4569013, “Massive Bioaccumulation and Self‐Assembly of Phenazine Compounds in Live Cells” (Advanced Science, 2015)
